Source: patent publication US20100317625A1, “NOVEL SULFONAMIDOMETHYLP[…] BETA-LACTAMASE” (priority 2006, published 2010)
Converted amounts (≈) assume the structure as drawn.

How the values were obtained:
[1] = system: CL 6188 (Acinetobacter baumanii; Oxa40); assay: microbe, parasite or virus in culture; settings: Acinetobacter baumannii, read-out: Imipenem MIC
Source text: (§1) The assay determines the concentration of a β-lactamase inhibitor required to reduce the MIC of a β-lactam antibiotic by one-half, one-quarter, one-eighth, one-sixteenth and one-thirty-second against strains of bacteria normally resistant to the antibiotic in question. This is accomplished by titrating the inhibitor (BLI=beta-lactamase inhibitor) in a serial dilution across a microtiter plate while at the same time titrating the antibiotic (AB) in a serial dilution down the microtiter plate and then inoculating the plate with the bacterial strain in question and allowing the bacteria to grow up overnight. Each well in this microplate checkerboard contains a different combination of concentrations of the inhibitor and the antibiotic allowing a full determination of any synergy between the two.
(§2) 100 μL is serially diluted from row A to row G of each MIC 2000 plate. […] 100 μL is removed from each well in row G of each MIC 2000 plate. […] 100 μL is serially diluted from column 1 to column 11 of each MIC 2000 plate. […] Plates are left at 37° C. for about 20 hours and scored for growth by eye. […]
(§3) Plates are scored for growth in each well. End points (MICs) where there is no growth in each row are determined and the concentrations of AB and the test BLI at each of these growth negative wells are then used to determine levels of synergy.

[2] = system: CL 5701 (Pseudomonas aeruginosa; Pa AmpC); assay: microbe, parasite or virus in culture; settings: read-out: Imipenem MIC
Source text: as §1, §2, §3

MIC [1]: 128 µg/mL (≈ 428 µM)
MIC [2]: 20 µg/mL (≈ 66.8 µM)
SMILES: C[C@@H](O)[C@H]1C(=O)N2C(C(=O)O)=C(SCCN=CN)C[C@H]12 [Imipenem]
